Assay results: paper PMC12040169 (PLOS Biology, 2025)

Legend:
in vitro [1] = assay: in vitro; parameters: Viability of infected HeLa host cells, resazurin conversion, bulk resorufin fluorescence relative to DMSO; settings: human, hela cells; bulk resorufin, mean of 2
in vitro [2] = settings: human, hela cells, % viability
[3] = tested on: T1, C. trachomatis L2/434/Bu expressing GFP (CTL2-GFP); assay: microbe, parasite or virus in culture; parameters: C. trachomatis total inclusion area by high-content imaging, normalised to DMSO; settings: Chlamydia trachomatis, HeLa, 28.5 h; total inclusion area; read-out: % of control remaining
T1 construct: L2/434/Bu GFP intracellular growth in HeLa cells
Outline: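 GFP/resorufin bulk fluorescence read → fix → Hoechst stain → high-content imaging. Inclusion total area + count = growth proxy; nuclei count = host viability proxy. MIC calc per earlier method.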

[4] = tested on: T2, CTL2-GFP (C. trachomatis L2/434/Bu, GFP-expressing); assay: microbe, parasite or virus in culture; parameters: Intracellular C. trachomatis growth in HeLa cells, bulk GFP fluorescence relative to DMSO; settings: Chlamydia trachomatis, HeLa, 28.5 h; bulk GFP, mean of 2; read-out: % of control remaining
T2 construct: L2/434/Bu, GFP-expressing
Protocol: MICs were calculated as described above.

SMILES	viability at 28.5 h, 1 µM (in vitro [1]) [%]	viability at 28.5 h, 5 µM (in vitro [1]) [%]	viability at 28.5 h, 10 µM (in vitro [1]) [%]	viability at 28.5 h, 10 µM (in vitro [2]) [%]	activity at 1 µM [3] [%]	activity at 5 µM [3] [%]	activity at 10 µM [3] [%]	activity at 1 µM [4] [%]	activity at 5 µM [4] [%]	activity at 10 µM [4] [%]
COc1ccc2[nH]cc(CCNC(=O)c3ccc([N+](=O)[O-])c(C)c3)c2c1 [CBK269426]	85.4	90.5	84.5	100	140	55.8	21.5	149	100	62.1
O=S(=O)(Nc1nccs1)c1ccc(Nc2ncnc3ccccc23)cc1 [CBK269487C]	93.3	99	86.3	93.8	140	53.6	28.6	141	72.9	35
O=C(Nc1nccs1)c1cc(C2CCN(C(=O)CC3CCCCC3)C2)nc2ccccc12 (centres unmarked) [CBK285586]	92.6	93	93.3	116	115	119	48.9	134	122	35.7
COc1cccc(C(=O)N2CCC(Cc3ccc(-c4cccc(C)c4)cc3)(C(N)=O)CC2)c1 [CBK285779]	96.4	98.8	90.2	115	113	114	62.9	119	104	49.9
Cc1cc2cc(C(=O)N3CCC(c4c(C(=O)NC(C)C)sc5ccccc45)C3)ccc2o1 (centres unmarked) [CBK285873]	90	97.6	96.2	87.1	150	85.1	51.5	148	48.7	31.6
O=C(c1ccc(-c2ccc(F)cc2)o1)N1C[C@H]2CC[C@](O)(c3ccc(F)cc3)[C@H]2C1 [CBK286415]	91.9	86.5	91.6	94.1	0.419	0.168	0.106	6.79	7.93	15.1
Cc1ccc(N2C(=O)c3[nH]nc(C)c3C2c2ccc(O)cc2)cc1 (centres unmarked) [CBK287915]	98	107	106	94.7	111	93.4	54.6	108	89.5	54.1
Cc1c(C(=O)Nc2ccc(Cl)cc2)sc2c1C(c1cccnc1)CC(=O)N2 (centres unmarked) [CBK288233]	101	98.8	97.1	87.1	100	56.2	44.9	99.5	55.5	83.6
Cc1cccc(Nc2nc(C)cc3n[nH]c(=O)n23)c1 [CBK288477]	102	104	81.5	89.2	74.4	33.7	17.7	134	57.5	29.6
COc1ccc(C=CC(=O)Nc2sc3c(c2C(=O)O)CCCC3)cc1OC [CBK296103]	91.1	87.4	89.7	117	117	69.8	22.5	118	85.9	27.4
CCCn1c(NC(=O)C(C)Oc2ccc(Cl)cc2Cl)nc2ccccc21 (centres unmarked) [CBK296979]	88	93.1	89.7	108	137	94.8	58.2	129	103	54.1
O=C(O)c1cn(C2CC2)c2cc(N3CCN(C(=O)Cc4ccsc4)CC3)c(F)cc2c1=O [CBK297142]	90.6	93	90.7	88.9	114	17.9	12.9	137	28.4	17.7
Cc1cc(NS(=O)(=O)c2ccc(NC(=O)CCCOc3ccc(Cl)cc3Cl)cc2)no1 [CBK297145]	85.1	93.5	89.4	103	125	84.3	56.5	128	62.6	39.3
CCN1CCN(c2cc3c(cc2F)c(=O)c(C(=O)NCCOC)cn3C2CC2)CC1 [CBK300529]	88.9	93	88.7	94.2	24.3	3.14	0.623	36.3	5.5	6.24
CC(Cc1nc(-c2nccn2C)cs1)n1cc(Cl)cn1 (centres unmarked) [CBK304114]	108	100	105	90.1	97.2	15.4	7.1	79.3	21	7.42
OCCn1ncc2c(NCc3cccc(Cn4ccnc4)c3)ncnc21 [CBK304184]	96.1	92	92.4	90.3	81	101	58.7	144	158	128
Fc1cc(Br)c(CNCc2ncc[nH]2)c(N2CCCCC2)c1F [CBK304243]	96.3	88.7	89.7	99.2	105	30.4	7.47	128	39.3	16.8
